Assay results as given in PMC2346451 (PLoS ONE, 2008).
Like-named read-outs stand apart in the source and are kept apart here.

Experiments:
rat TRPM8 (rTRPM8) = rat TRPM8 (rTRPM8) (Rattus norvegicus, UniProt Q8R455); assay: Whole-cell patch clamp of rat TRPM8 expressed in HEK-293T cells; assay type: cell-based
Procedure: (§1) Transformed human embryonic kidney-293 (HEK-293T) cells were grown in Dulbecco's modified Eagle's medium (DMEM)+F-12 supplemented with 10% fetal calf serum, and 1% penicillin/streptomycin in 5% CO2 at 37°C. Cells grown to 90% confluence in 35 mm Petri dishes were transiently transfected with plasmid DNA encoding a TRP channel construct (1 µg). Rat TRPV1 (rTRPV1) was cloned into an enhanced green fluorescent protein-containing vector (pTracer-CMV2; Invitrogen, Carlsbad, CA). Chicken TRPV1 (cTRPV1), the chicken rat TRPV1 chimera (crcTRPV1), rat TRPV2 (rTRPV2), mouse TRPV3 (mTRPV3), mouse TRPV4 (mTRPV4), rat TRPM8 (rTRPM8), and rat TRPA1 (rTRPA1), were cloned into pcDNA3 and co-transfected with enhanced green fluorescent protein (0.1 µg) to follow expression. The cTRPV1 and crcTRPV1 clones were kindly provided by Dr. David Julius. Recordings were carried out 24–36 hours after transfection. Cells were split via trypsin EDTA, plated on glass coverslips at 5–10% confluence, and used 2–3 hours later.
(§2) Electrophysiological experiments were performed using the whole-cell patch-clamp technique at room temperature. Modified Ringer's solution with low chloride and nominal calcium contained (in mM): 130 sodium hydroxide, 5 potassium chloride, 1 magnesium chloride, 10 sodium 4-(2-hydroxyethyl)-1-piperazineethanesulfonic acid, 10 2-(N-morpholino)ethanesulfonic acid, and 20 glucose (pH 7.4; 310 milli-osmolar). […] 2 mM calcium chloride was included in the external solution where noted. To activate TRPV1, the modified Ringer's solution was made at pH 5 (low pH solution) and the chloride concentration was kept to a minimum to prevent contamination of the TRPV1 currents with acid-activated chloride currents. For recordings from heterologously expressing cells, the internal pipette solution contained (in mM): 125 cesium-Methanesulfonate, 10 cesium (1.2-bis(o-aminophenoxy)ethane-N,N,N',N'-tetraacetic acid, 8 sodium chloride, 4 magnesium adenosine triphosphate, and 10 HEPES (pH 7.2; 290 mOSM; nominal free calcium concentrations). For TRPA1 and dorsal root ganglion recordings, the internal pipette solution contained (in mM): 110 cesium-Methanesulfonate, 0.5 cesium4BAPTA, 8 sodium chloride, 0.2 calcium chloride, 4 magnesium-ATP, 4 sodium-GTP, and 10 4-(2-hydroxyethyl)-1-piperazineethanesulfonic acid (pH 7.2; 290 mOSM; 100 nM free calcium internal). MaxChelator was used to calculate the free calcium concentration (http://www.stanford.edu/cpatton/maxc.html).
(§3) Recordings were obtained using an Axopatch 200B amplifier, Digidata 1322A analog-to-digital converter, and pClamp 8.01 software (Molecular Devices, Union City, CA). Data were low-pass filtered at 2 kHz and digitized at 5 kHz. Borosilicate glass pipettes (World Precision Instruments, Sarasota, FL) were typically 3 MΩ pipette resistance after fire polishing. Cell capacitance was measured for each cell, and access resistance compensated to ∼80%. Recordings were begun ∼5 minutes after initial rupture to ensure initial steady state conditions. Current-voltage (I-V) relations were obtained using a ramp protocol. Voltage ramps (400 ms) from −100 to +40 or +100 mV were applied every 1–2 seconds and the holding potential was either −70 mV or 0 mV (see Figure Legends). A 40 ms step was added at the beginning and end of the ramp (i.e. at −100 mV, +40 mV or +100 mV). Liquid junction potentials were not corrected.
(§4) The dose response curves were fit with the Hill equation, where [drawing 8] and [A] is the concentration of agonist or blocker, N is the Hill coefficient, and KD is the [A] for Imeasured/Imax = 0.5. The term apparent dissociation constant is used in place of the half concentration of excitation and inhibition. […] Averaged data are presented as mean±standard error (S.E.) throughout. Statistical analysis included paired and unpaired Student's t-test comparisons of the data; p values are reported in the text.

rat TRPV1 (rTRPV1) = rat TRPV1 (rTRPV1) (Rattus norvegicus, UniProt O35433); assay: Whole-cell patch clamp of rat TRPV1 expressed in HEK-293T cells; assay type: cell-based; settings: for Increase of agonist-evoked current prior to onset of inhibition: citral 1 mM, n = 8
Procedure: as §1, §2, §3, §4

[1] = system: dorsal root ganglion neurons; assay: Fura-2 calcium imaging of dorsal root ganglion neurons; assay type: cell-based, rat; settings: 1 mM citral; freshly isolated neurons
Excerpt: Dorsal root ganglion neurons from all spinal levels were removed from postnatal day 12 to 20 Sprague Dawley rats and the nerve roots trimmed. Calcium- and magnesium-free (CMF) Hank's solution contained (in mM): 136.9 sodium chloride, 5.4 potassium chloride, 0.34 dibasic sodium orthophosphate, 0.44 monopotassium phosphate, 5.6 glucose, 5 4-(2-hydroxyethyl)-1-piperazineethanesulfonic acid, 0.005% phenol red, pH 7.4. CMF Hank's was used throughout the isolation and enzymatic treatments. The isolated ganglia were treated for 20 minutes at 37°C with 20 U/ml of papain (Worthington Biochemical, Lakewood, NJ) and 5 mM cysteine. The ganglia were then transferred to CMF Hank's with 3 mg/ml collagenase (type I; Worthington) and 4 mg/ml dispase (neutral type II; Roche Applied Science, Indianapolis, IN) for 20 minutes at 37°C. […]
Dorsal root ganglion neurons were loaded with 5 µM fura-2 AM and 0.02% pluronic acid in media at 37°C for 60 minutes. […] The MetaFluor imaging system (Universal Imaging Corporation) was used to record fluorescence at 340 and 380 nm excitation wavelengths. Background fluorescence, measured as the ratio 340/380 in a “cell-free” zone during the experiment, was subtracted from the data. […]

Sequence of rat TRPM8 (rTRPM8) (Q8R455 whole entry): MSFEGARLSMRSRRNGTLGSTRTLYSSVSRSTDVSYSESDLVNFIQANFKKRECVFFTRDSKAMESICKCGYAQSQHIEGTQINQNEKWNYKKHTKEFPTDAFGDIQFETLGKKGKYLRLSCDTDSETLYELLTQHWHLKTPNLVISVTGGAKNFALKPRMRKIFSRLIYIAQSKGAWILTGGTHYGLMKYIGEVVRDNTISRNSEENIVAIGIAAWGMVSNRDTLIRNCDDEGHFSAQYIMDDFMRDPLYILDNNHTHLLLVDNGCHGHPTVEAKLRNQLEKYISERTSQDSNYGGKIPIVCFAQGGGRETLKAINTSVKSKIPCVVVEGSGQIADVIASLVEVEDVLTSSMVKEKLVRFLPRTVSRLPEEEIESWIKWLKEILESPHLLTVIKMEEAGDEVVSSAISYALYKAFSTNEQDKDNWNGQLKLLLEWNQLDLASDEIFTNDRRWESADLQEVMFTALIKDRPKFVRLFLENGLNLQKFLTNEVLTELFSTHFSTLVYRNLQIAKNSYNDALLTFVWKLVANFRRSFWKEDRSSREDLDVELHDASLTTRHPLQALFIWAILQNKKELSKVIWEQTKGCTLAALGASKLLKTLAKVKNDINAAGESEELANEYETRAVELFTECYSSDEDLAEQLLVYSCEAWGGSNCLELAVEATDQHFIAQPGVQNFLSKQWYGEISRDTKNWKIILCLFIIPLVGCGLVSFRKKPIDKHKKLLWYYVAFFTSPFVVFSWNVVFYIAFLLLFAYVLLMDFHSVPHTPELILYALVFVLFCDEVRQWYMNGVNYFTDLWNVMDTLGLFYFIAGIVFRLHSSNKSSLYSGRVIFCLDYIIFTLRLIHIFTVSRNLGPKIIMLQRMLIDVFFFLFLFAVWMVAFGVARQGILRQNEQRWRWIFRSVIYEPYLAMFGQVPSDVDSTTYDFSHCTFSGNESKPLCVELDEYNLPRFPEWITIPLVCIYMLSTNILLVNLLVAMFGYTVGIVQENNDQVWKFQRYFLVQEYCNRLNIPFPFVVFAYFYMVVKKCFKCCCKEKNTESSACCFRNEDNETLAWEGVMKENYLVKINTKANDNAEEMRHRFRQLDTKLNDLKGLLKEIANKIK
Sequence of rat TRPV1 (rTRPV1) (O35433 whole entry): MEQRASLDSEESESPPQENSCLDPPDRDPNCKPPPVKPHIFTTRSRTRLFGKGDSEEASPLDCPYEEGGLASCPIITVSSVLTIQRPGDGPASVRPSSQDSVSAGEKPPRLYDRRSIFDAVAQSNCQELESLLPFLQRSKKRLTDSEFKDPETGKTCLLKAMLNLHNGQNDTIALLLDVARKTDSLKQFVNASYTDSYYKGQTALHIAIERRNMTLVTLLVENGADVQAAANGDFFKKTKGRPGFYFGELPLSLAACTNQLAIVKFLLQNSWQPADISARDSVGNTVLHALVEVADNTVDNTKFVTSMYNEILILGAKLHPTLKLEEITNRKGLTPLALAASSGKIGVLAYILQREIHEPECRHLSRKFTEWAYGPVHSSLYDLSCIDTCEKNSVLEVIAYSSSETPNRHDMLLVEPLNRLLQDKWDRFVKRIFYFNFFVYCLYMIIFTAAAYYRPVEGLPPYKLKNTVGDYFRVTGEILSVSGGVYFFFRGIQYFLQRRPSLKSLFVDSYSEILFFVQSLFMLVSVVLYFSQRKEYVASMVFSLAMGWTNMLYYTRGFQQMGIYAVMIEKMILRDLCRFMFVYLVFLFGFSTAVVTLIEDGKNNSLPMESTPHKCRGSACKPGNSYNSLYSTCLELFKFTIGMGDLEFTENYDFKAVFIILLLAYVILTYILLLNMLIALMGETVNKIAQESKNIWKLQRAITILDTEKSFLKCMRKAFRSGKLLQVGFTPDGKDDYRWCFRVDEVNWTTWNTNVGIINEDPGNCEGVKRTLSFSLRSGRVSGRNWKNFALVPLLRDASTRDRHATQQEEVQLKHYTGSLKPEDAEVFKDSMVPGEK

Structure (SMILES): CC(C)=CCCC(C)=CC=O [citral, 3,7-dimethyl-2,6-octadienal]
- Hill coefficient (activation) (rat TRPM8 (rTRPM8)): 1.6
- Reversibility of citral inhibition of agonist-evoked current (rat TRPM8 (rTRPM8)): essentially irreversible
- Hill coefficient (inhibition) (rat TRPM8 (rTRPM8); +40 mV): 1.7
- Increase in TRPM8 current evoked by menthol after citral washout (rat TRPM8 (rTRPM8); after 60 seconds washout, n = 3): 4±2%
- Kd (rat TRPM8 (rTRPM8); citral activation, nominal external calcium, read-out: Activation KD, app): 33.5 µM
- Kd (rat TRPM8 (rTRPM8); citral block of menthol (1 mM)-evoked current, +40 mV, read-out: Inhibition KD, app): 188 µM
- Kd (rat TRPM8 (rTRPM8); citral block of menthol (1 mM)-evoked current, −40 mV, read-out: Inhibition KD, app): 241 µM
- Agonist efficacy Imenthol (30 µM)/Icitral (300 µM) (rat TRPM8 (rTRPM8); fold larger, −40 mV, n = 5): Imenthol (30 µM)/Icitral (300 µM) 74±28 fold larger (n = 5; −40 mV)
- Effect of citral addition on agonist-induced current (rat TRPM8 (rTRPM8); menthol-induced, n = 4): not increased
- Time for >50% inhibition of peak TRP current in continued presence of citral (rat TRPM8 (rTRPM8); n = 7): ≤ 14 s
- Hill coefficient (inhibition) (rat TRPM8 (rTRPM8); −40 mV): 2.0
- Increase of inward ITRPM8 above baseline (rat TRPM8 (rTRPM8); −40 mV): 2 fold
- Reversibility of citral inhibition of agonist-evoked current (rat TRPV1 (rTRPV1)): essentially irreversible
- pH 5-evoked TRPV1 current remaining after citral washout (rat TRPV1 (rTRPV1); 30 seconds after citral washout, n = 5): 0.2±0.1%
- Hill coefficient (activation) (rat TRPV1 (rTRPV1); +40 mV): 2.9
- Increase of agonist-evoked current prior to onset of inhibition (rat TRPV1 (rTRPV1); +40 mV): 1.6±0.2 fold
- Increase of agonist-evoked current prior to onset of inhibition (rat TRPV1 (rTRPV1); −100 mV): 1.8±0.3 fold
- Kd (rat TRPV1 (rTRPV1); citral activation, +40 mV, nominal external calcium, read-out: Activation KD, app): 417 µM
- Kd (rat TRPV1 (rTRPV1); citral activation, −40 mV, nominal external calcium, read-out: Activation KD, app): 465 µM
- Hill coefficient (inhibition) (rat TRPV1 (rTRPV1); citral block of pH5-evoked current): 1.3
- Kd (rat TRPV1 (rTRPV1); citral block of pH5-evoked current, read-out: Inhibition KD, app): 187 µM
- Agonist efficacy IpH5/Icitral (1 mM) (rat TRPV1 (rTRPV1); fold larger, −40 mV, n = 3): IpH5/Icitral (1 mM) 28±8 fold larger (n = 3; −40 mV)
- Time for >50% inhibition of peak TRP current in continued presence of citral (rat TRPV1 (rTRPV1); n = 9): ≤ 14 s
- Hill coefficient (activation) (rat TRPV1 (rTRPV1); −40 mV): 2.7
- Increase of inward ITRPV1 above baseline (rat TRPV1 (rTRPV1); −40 mV): 14 fold
- Neurons with increased internal calcium concentration among capsaicin-responsive neurons [1]: 12 of 35
